Patent US20090155279A1, “Pseudomonas Aeruginosa Outer Membrane Protein PA5158” (priority 2005, published 2009)
Converted amounts (≈) assume the structure as drawn.

Columns and labels:
[1] = tested on: multidrug resistant Pseudomonas aeruginosa MSC06120 strains; assay: Minimum inhibitory concentrations for MSC06120 strains; assay type: cell-based; conditions: read-out: Minimum inhibitory concentration
[2] = tested on: Pseudomonas aeruginosa PA103 strains (ATCC29260); assay: Enhancement of anti-Pseudomonas aeruginosa activity of gentamicin (viable count); assay type: cell-based; conditions: gentamicin 0.125 μg/ml plus PBS (negative control group), 4 hours at 37° C.
Experimental: Pseudomonas aeruginosa PA103 strains (ATCC29260) were shake cultured overnight at 37° C. in a Mueller-Hinton liquid medium and diluted to 1×10^5 cfu/ml with the same medium. Then, the strains were shake cultured again at 37° C. Two hours later, gentamicin was added at a concentration of 0.125 μg/ml. Likewise, to a negative control group, PBS was added at a concentration of 300 μg/ml. To antibody-added groups, rat anti-PA5158L1 IgG as the monoclonal antibody produced by the hybridoma deposited under the accession No. FERM-BP-10672, rat anti-PA5158L2 IgG as the IgG fraction purified from the KLH-conjugated peptide (SEQ ID No: 6)-immunized rat sera, and rat anti-PA5158 IgG as the IgG fraction purified from the PA5158 recombinant protein-immunized rat sera were added at each concentration of 300 μg/ml. Then, shake culture was carried out at 37° C. for 4 hours, and the number of viable strains in each group was measured.

Row | MIC [1] | Molecule | Number of viable strains [2]
1 | 64 µg/mL (≈ 109 µM) | NCC[C@H](O)C(=O)N[C@@H]1C[C@H](N)[C@@H](O[C@H]2O[C@H](CN)[C@@H](O)[C@H](O)[C@H]2O)[C@H](O)[C@H]1O[C@H]1O[C@H](CO)[C@@H](O)[C@H](N)[C@H]1O [amikacin] | 
2 | 32 µg/mL (≈ 107 µM) | C[C@@H](O)[C@H]1C(=O)N2C(C(=O)O)=C(SCCN=CN)C[C@H]12 [imipenem] | 
3 |  | gentamicin | 5.4×10^6 cfu/ml

Row | Molecule | MIC [1] | Number of viable strains [2]
4 | O=C(O)c1cn(C2CC2)c2cc(N3CCNCC3)c(F)cc2c1=O [ciprofloxacin] | > 256 µg/mL | 
